# ChEMBL document CHEMBL1201862, “PubChem BioAssay data set” (2004)
#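 Step 1: Grow cells in 96-well plates. Step 2: Expose to compound for 48 hours at 5 concentrations. Step 3: Interpolate endpoints linearly; if unreached, use highest concentration. GI50: concentration for 50% inhibition of growth.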 Active and inactive are the calls of the source. No stated cut-off is given here; in the data, active = GI50 up to about 1.1 µM and inactive = higher.
# Key:
# Assay in all cases: growth of human tumour cells (NCI), 48 h
# CCRF-CEM = tested on: CCRF-CEM
# OVCAR-8 = tested on: OVCAR-8
# MDA-N = tested on: MDA-N
# SR = tested on: SR
# 786-0 = tested on: 786-0
# TK-10 = tested on: TK-10
# SW-620 = tested on: SW-620
# SK-MEL-2 = tested on: SK-MEL-2
# A498 = tested on: A498
# MCF7 = tested on: MCF7
# HOP-62 = tested on: HOP-62
# MDA-MB-435 = tested on: MDA-MB-435
# SNB-19 = tested on: SNB-19
# NCI-H460 = tested on: NCI-H460
# BT-549 = tested on: BT-549
SMILES,GI50 (CCRF-CEM),GI50 (OVCAR-8),GI50 (MDA-N),GI50 (SR),GI50 (786-0),GI50 (TK-10),GI50 (SW-620),GI50 (SK-MEL-2),GI50 (A498),GI50 (MCF7),GI50 (HOP-62),GI50 (MDA-MB-435),GI50 (SNB-19),GI50 (NCI-H460),GI50 (BT-549)
COc1cc2c(cc1OC)C1(COc3cc(O)c(O)c(O)c3C1=O)C2 (centres undefined),> 50 µM (inactive),> 50 µM (inactive),> 50 µM (inactive),> 50 µM (inactive),> 50 µM (inactive),> 50 µM (inactive),> 50 µM (inactive),> 50 µM (inactive),> 50 µM (inactive),0.005 µM (active),> 50 µM (inactive),> 50 µM (inactive),> 50 µM (inactive),> 50 µM (inactive),
C#CCN(Cc1ccc2nc(-c3ccccc3)c(Cl)nc2c1)c1ccc(F)cc1,17.5 µM (inactive),> 100 µM (inactive),> 100 µM (inactive),45.8 µM (inactive),> 100 µM (inactive),> 100 µM (inactive),> 100 µM (inactive),> 100 µM (inactive),> 100 µM (inactive),63.8 µM (inactive),> 100 µM (inactive),> 100 µM (inactive),> 100 µM (inactive),> 100 µM (inactive),> 100 µM (inactive)
CC(C)C(=O)Cc1ccc2ccccc2n1,> 100 µM (inactive),> 100 µM (inactive),55.2 µM (inactive),,> 100 µM (inactive),> 100 µM (inactive),> 100 µM (inactive),> 100 µM (inactive),> 100 µM (inactive),> 100 µM (inactive),> 100 µM (inactive),70 µM (inactive),> 100 µM (inactive),> 100 µM (inactive),> 100 µM (inactive)
O=c1c2cc(I)ccc2nc(-c2cccs2)n1O,27.7 µM (inactive),38.1 µM (inactive),51.2 µM (inactive),33.8 µM (inactive),55.2 µM (inactive),24.6 µM (inactive),37 µM (inactive),48.6 µM (inactive),,50 µM (inactive),48.9 µM (inactive),34.8 µM (inactive),22.2 µM (inactive),36.6 µM (inactive),33.2 µM (inactive)
CC(O)(P(=O)(O)O)P(=O)(O)OCC(O)CN1CCOCC1 (centres undefined),> 100 µM (inactive),> 100 µM (inactive),> 100 µM (inactive),> 100 µM (inactive),> 100 µM (inactive),> 100 µM (inactive),> 100 µM (inactive),,> 100 µM (inactive),> 100 µM (inactive),> 100 µM (inactive),> 100 µM (inactive),> 100 µM (inactive),> 100 µM (inactive),> 100 µM (inactive)
CC(C)C1=C(O)C(=O)C2=C(C1=O)C(OC=O)C(O)C1C(C)(C)CCCC21C (centres undefined),3.27 µM (inactive),7.29 µM (inactive),7.31 µM (inactive),3 µM (inactive),4.09 µM (inactive),13.4 µM (inactive),3.1 µM (inactive),12.1 µM (inactive),14.8 µM (inactive),11.4 µM (inactive),37.6 µM (inactive),2.73 µM (inactive),13.4 µM (inactive),3.22 µM (inactive),8.36 µM (inactive)
O=C1C(Cl)C2(CC(/C=C/c3cccs3)=NN2c2cccc(S(=O)(=O)O)c2)N1c1nc2ccccc2s1 (centres undefined),20.1 µM (inactive),41.7 µM (inactive),> 100 µM (inactive),29.9 µM (inactive),94.6 µM (inactive),19.3 µM (inactive),> 100 µM (inactive),> 100 µM (inactive),76.2 µM (inactive),46.6 µM (inactive),,45.8 µM (inactive),> 100 µM (inactive),31.1 µM (inactive),55.6 µM (inactive)
O=c1cc(O)c1=O,> 100 µM (inactive),> 100 µM (inactive),> 100 µM (inactive),> 100 µM (inactive),,> 100 µM (inactive),> 100 µM (inactive),> 100 µM (inactive),> 100 µM (inactive),> 100 µM (inactive),> 100 µM (inactive),> 100 µM (inactive),> 100 µM (inactive),> 100 µM (inactive),> 100 µM (inactive)
CCc1ncc(C(C)(O)c2ccccc2)n1Cc1ccccc1 (centres undefined),48.9 µM (inactive),36.1 µM (inactive),,14.8 µM (inactive),,33.5 µM (inactive),31.6 µM (inactive),70.8 µM (inactive),,67.8 µM (inactive),< 0.01 µM (active),22.4 µM (inactive),42.4 µM (inactive),54.7 µM (inactive),45.3 µM (inactive)
COc1ccc(-c2cs/c(=N\c3ccccc3)n2CCCN(C)C)cc1,21.1 µM (inactive),21.8 µM (inactive),30.6 µM (inactive),22.8 µM (inactive),,14.2 µM (inactive),> 10 µM (inactive),19.8 µM (inactive),22 µM (inactive),,13.6 µM (inactive),18.4 µM (inactive),19.2 µM (inactive),23.8 µM (inactive),19.2 µM (inactive)
